According to patent US8980792B2, “Compositions comprising abscisic acid and a fungicidally active compound” (Syngenta Participations AG, priority 2010, dated 2015):

Test system: Mycosphaerella graminicola (Septoria tritici)
Test: Septoria tritici leaf spot on wheat, preventative foliar spray test
Format: in vivo
From the text: Mycosphaerella graminicola (Septoria tritici)/Wheat/Preventative (Septoria tritici Leaf Spot on Wheat)
The isopyrazam is formulated as an emulsion concentrate formulation and mixed with water to form a stock solution and ultrasonically agitated in order to achieve homogeneous distribution. Spray solutions are made up from the stock solution by dilution in water/isopropanol (10% isopropanol v/v), with abscisic acid added where needed as a tank mix to the diluted stock solution, and mechanically stirred just before spraying. Foliar application is at 200 L/ha using an application device spraying with a single nozzle (Lechler type) 60 cm above the plants. Typically two-week old wheat plants cv. Riband are sprayed with the spray solution in the spray chamber of the application device. The test plants are inoculated by spraying a spore suspension on them one day after application. After an incubation period of 1 day at typically 22° C./21° C. (day/night) and 95% rh, the inoculated test plants are kept at typically 22° C./21° C. (day/night) and 70% rh in a greenhouse. Percentage efficacy is assessed by direct visual comparison to untreated check plants when an appropriate level of disease appears on the untreated checks (typically 14-19 days after application).

SMILES	% Disease Control (isopyrazam 2.44 mg/ml alone) [%]	% Disease Control (isopyrazam 9.77 mg/ml alone) [%]	% Disease Control (isopyrazam 39.06 mg/ml alone) [%]	% Disease Control (isopyrazam 156.25 mg/ml alone) [%]	% Disease Control (isopyrazam 625.00 mg/ml alone) [%]	% Disease Control (abscisic acid 0.0025 % w/v alone, foliar spray 200 L/ha, wheat) [%]	% Disease Control (abscisic acid 0.0238 % w/v alone, foliar spray 200 L/ha, wheat) [%]
CC(C)C1C2CCC1c1c(NC(=O)c3cn(C)nc3C(F)F)cccc12 (stereo not shown) [Isopyrazam]	3	10	50	67	80		
CC1=CC(=O)CC(C)(C)[C@@]1(O)/C=C/C(C)=C\C(=O)O [Abscisic acid]						0	0
